From ChEMBL document CHEMBL4616600, “Synthesis and cytotoxic evaluation of halogenated α-exo-methylene-lactones” (Bioorg Med Chem, 2020)

Legend:
[1] = Antiproliferative activity against human H1975-1 harboring EGFR L858R/T790M mutant measured after 72 hrs by sulforhodamine B assay; type: functional
A-431 = assay: Antiproliferative activity against human A431 wild type cells measured after 72 hrs by Sulforhodamine B assay; type: functional, cell-based; conditions: A-431, 72 h
HCC827 = assay: Antiproliferative activity against human HCC827 cells measured after 72 hrs by sulforhodamine B assay; type: functional, cell-based; conditions: HCC827, 72 h
A549 = assay: Antiproliferative activity against human A549 cells measured after 72 hrs by sulforhodamine B assay; type: functional, cell-based; conditions: A549, 72 h
L02 = assay: Cytotoxicity against human HL7702 cells measured after 72 hrs by sulforhodamine B assay; type: cell-based; conditions: L02, 72 h
[2] = target: Epidermal growth factor receptor (Homo sapiens, UniProt P00533, L858R/T790M); assay: Inhibition of EGFR L858R/T790M (unknown origin)
Epidermal growth factor receptor (Homo sapiens, UniProt P00533, L858R/T790M), sequence (P00533 25-1210 T790M/L858R limits assumed): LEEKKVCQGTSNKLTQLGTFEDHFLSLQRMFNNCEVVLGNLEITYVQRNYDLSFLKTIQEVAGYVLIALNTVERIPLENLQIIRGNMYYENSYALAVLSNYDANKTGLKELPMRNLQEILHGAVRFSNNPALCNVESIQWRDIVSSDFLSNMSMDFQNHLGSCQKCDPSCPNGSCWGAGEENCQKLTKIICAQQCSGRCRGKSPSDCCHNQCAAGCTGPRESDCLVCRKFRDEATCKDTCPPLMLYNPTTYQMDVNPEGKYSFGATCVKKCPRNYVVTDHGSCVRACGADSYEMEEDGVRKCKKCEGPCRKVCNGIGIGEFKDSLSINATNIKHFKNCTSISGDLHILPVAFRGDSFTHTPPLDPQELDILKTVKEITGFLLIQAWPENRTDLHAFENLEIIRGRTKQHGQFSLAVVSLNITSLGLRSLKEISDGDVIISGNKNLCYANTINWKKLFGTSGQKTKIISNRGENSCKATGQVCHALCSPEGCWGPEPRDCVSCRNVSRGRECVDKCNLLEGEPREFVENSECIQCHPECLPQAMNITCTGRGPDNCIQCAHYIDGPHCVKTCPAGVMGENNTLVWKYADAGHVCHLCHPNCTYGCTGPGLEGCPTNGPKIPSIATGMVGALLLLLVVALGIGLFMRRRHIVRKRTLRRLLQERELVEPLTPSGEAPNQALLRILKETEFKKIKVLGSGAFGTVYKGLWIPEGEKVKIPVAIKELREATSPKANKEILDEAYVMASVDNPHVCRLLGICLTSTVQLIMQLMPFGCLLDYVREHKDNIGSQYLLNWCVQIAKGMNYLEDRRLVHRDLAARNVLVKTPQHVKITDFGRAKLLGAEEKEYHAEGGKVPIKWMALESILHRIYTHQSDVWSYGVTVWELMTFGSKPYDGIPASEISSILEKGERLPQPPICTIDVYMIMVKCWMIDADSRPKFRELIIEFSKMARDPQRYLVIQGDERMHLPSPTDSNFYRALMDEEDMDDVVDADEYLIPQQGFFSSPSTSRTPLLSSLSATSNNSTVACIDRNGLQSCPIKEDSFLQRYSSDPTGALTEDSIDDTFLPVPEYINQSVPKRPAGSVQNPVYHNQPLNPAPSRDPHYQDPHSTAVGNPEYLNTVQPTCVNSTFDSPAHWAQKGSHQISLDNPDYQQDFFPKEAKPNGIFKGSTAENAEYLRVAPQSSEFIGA

[3] = target: Epidermal growth factor receptor (Homo sapiens, UniProt P00533); assay: Inhibition of wild type EGFR (unknown origin)
Epidermal growth factor receptor (Homo sapiens, UniProt P00533), sequence (P00533 whole entry): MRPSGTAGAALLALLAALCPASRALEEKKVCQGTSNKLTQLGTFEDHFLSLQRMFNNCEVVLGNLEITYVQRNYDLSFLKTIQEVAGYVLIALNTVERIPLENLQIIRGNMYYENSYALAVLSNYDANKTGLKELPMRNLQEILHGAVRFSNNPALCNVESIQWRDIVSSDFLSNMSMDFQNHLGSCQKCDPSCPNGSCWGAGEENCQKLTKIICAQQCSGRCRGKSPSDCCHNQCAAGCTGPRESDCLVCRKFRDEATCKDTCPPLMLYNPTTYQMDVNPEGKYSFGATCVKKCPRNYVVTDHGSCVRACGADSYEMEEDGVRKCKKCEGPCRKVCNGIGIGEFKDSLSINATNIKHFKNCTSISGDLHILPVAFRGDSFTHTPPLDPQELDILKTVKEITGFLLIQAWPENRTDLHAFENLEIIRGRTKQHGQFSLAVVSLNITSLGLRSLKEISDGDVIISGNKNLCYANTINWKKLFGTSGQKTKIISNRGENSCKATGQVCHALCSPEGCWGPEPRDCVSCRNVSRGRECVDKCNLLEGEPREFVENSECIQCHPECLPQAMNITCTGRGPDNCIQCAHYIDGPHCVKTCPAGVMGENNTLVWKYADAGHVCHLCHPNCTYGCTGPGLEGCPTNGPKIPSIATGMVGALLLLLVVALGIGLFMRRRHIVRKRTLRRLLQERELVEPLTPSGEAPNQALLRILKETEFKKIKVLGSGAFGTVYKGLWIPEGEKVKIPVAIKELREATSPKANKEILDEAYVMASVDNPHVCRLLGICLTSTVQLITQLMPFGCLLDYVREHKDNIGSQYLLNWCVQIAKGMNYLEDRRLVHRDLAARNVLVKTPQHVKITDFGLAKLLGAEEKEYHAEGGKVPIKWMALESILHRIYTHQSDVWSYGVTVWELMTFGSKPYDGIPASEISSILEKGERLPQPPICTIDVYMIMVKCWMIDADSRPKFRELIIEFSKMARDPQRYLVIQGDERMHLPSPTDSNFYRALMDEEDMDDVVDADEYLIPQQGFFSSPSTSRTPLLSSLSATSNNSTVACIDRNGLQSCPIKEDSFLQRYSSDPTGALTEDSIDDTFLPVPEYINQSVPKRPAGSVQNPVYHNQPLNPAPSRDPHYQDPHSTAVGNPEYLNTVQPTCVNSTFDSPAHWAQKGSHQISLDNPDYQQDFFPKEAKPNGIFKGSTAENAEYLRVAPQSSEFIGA

SMILES	IC50 (A-431) [nM]	IC50 (HCC827) [nM]	IC50 (A549) [nM]	IC50 [2] [nM]	IC50 [3] [nM]	IC50 [1] [nM]	IC50 (L02) [nM]
C=C1C(=O)O[C@@H]2C3O[C@]3(C)CC/C=C(\C)CC[C@@H]12 (stereo partly drawn)	2570					1430	
C=C1C[C@](CCl)(c2ccccc2)OC1=O	30600					9770	
C=C1C[C@@](CCl)(c2ccccc2)OC1=O	43000					21400	
C=C1C[C@]2(CCCc3ccccc3[C@H]2Br)OC1=O	3300					1200	
C=C1CC[C@](CBr)(c2ccccc2)OC1=O	10900					1330	
C=C1C[C@]2(CCc3ccccc3[C@H]2Br)OC1=O	4100					1220	
C=C1C[C@@]2(CCCc3ccccc3[C@@H]2Br)OC1=O	2500					1000	
C=C1CC(CBr)(c2ccccc2C)OC1=O (racemic)	5500					3500	
C=C1CC(c2ccccc2)(C(Cl)c2ccccc2)OC1=O (racemic)	2770					1260	
C=C1C[C@]2(CCCC[C@H]2Br)OC1=O (racemic)	21200					4550	
C=C1CC(CO)(c2ccccc2)OC1=O (racemic)	4060					2260	
C=C1CC(C[Se]c2ccccc2)(c2ccccc2)OC1=O (racemic)	1270					1300	
C=C1CC(CBr)(c2ccc(OC)cc2)OC1=O (racemic)	4200					2300	
C=C1CC(CBr)(c2ccccc2OC)OC1=O (racemic)	2400					1100	
C=C1CC(c2ccccc2)(C(C)Br)OC1=O (racemic)	5240					1660	
C=C1CC(CF)(c2ccccc2)OC1=O (racemic)	25100					13400	
C=C1CC(CI)(c2ccccc2)OC1=O (racemic)	2720	2200	1980	26000	47000	650	2200
C=C1CC(c2ccccc2)(C(Br)c2ccccc2)OC1=O (racemic)	4190	1000	1370	14000	29000	250	960
C=C1CC(C)(CBr)OC1=O (racemic)	124000					32000	
C=C1CN(S(=O)(=O)c2ccc([N+](=O)[O-])cc2)CC(CBr)(c2ccccc2)OC1=O (racemic)	21200					24200	
C=C1CC(CBr)(c2cccc(C)c2)OC1=O (racemic)	4500					1200	
C=C1CC(C(Br)c2ccccc2)OC1=O (racemic)	20300					6200	

Continued, in another order:

IC50 (A-431) [nM]	IC50 (HCC827) [nM]	IC50 (A549) [nM]	IC50 [2] [nM]	IC50 [3] [nM]	SMILES	IC50 [1] [nM]	IC50 (L02) [nM]
2090					C=C1C[C@]2(Cc3ccccc3[C@H]2Br)OC1=O	4390	
2200					C=C1CC[C@@](CBr)(c2ccccc2)OC1=O	1620	
1330					C=C1C[C@](CBr)(c2ccccc2)OC1=O	970	
2200					C=C1CC(CBr)(c2ccc(C)cc2)OC1=O (racemic)	1100	
1900	1100	1210	15000	24000	C=C1CC(CI)(c2ccc(F)cc2)OC1=O (racemic)	600	1200
1270					C=C1CC2(CCCc3ccccc3C2Br)OC1=O (racemic)	1080	
1100					C=C1CC(CBr)(c2ccc(Cl)cc2)OC1=O (racemic)	1540	
800	2300	1680	30000	64000	C=C1CC(CBr)(c2ccc(F)cc2)OC1=O (racemic)	600	2400
1700					C=C1CC(CBr)(c2ccccc2F)OC1=O (racemic)	1300	
1010					C=C1CC(CBr)(c2ccc(C(F)(F)F)cc2)OC1=O (racemic)	1940	
1480					C=C1CC(CBr)(c2ccccc2)OC1=O (racemic)	800	
2					CC(=O)O[C@H]1C(=O)[C@@]2(C)[C@H]([C@H](OC(=O)c3ccccc3)[C@]3(O)C[C@H](OC(=O)[C@H](O)[C@@H](NC(=O)c4ccccc4)c4ccccc4)C(C)=C1C3(C)C)[C@]1(OC(C)=O)CO[C@@H]1C[C@@H]2O [PACLITAXEL]	3	
